Earlier results as cited in patent US20140100178A1, “COMPOSITION AND METHODS FOR SITE-SPECIFIC DRUG DELIVERY TO TREAT MALARIA AND OTHER LIVER DISEASES” (priority 2012, published 2014).

Experiments:
[1] = prophylactic doses (0.5 mg base/kg/day); children and men with normal G6PD activity; toxicity associated with >10%
[2] = in vivo

SMILES: COc1cc(NC(C)CCCN)c2ncccc2c1 (centres unmarked) [primaquine, Primaquine]
- mean methemoglobin rates [1]: 5.8%
- half life [2]: ~4 h
